The NIST ThermoML archive (doi:10.1021/je900596d)

Settings: for mass density: Vibrating tube method; for vapor or sublimation pressure: Closed cell (Static) method

FC(F)=C(F)C(F)(F)F [hexafluoropropene]
Settings | mass density [kg/m3]
303.36 K, 1884.5 kPa, Liquid | 1299.72
303.36 K, 1906.2 kPa, Liquid | 1300.05
303.36 K, 1950 kPa, Liquid | 1300.59
303.36 K, 1985.6 kPa, Liquid | 1301.03
303.36 K, 2016.6 kPa, Liquid | 1301.15
303.36 K, 2051.2 kPa, Liquid | 1301.63
303.36 K, 2084.4 kPa, Liquid | 1301.95
303.36 K, 2119.1 kPa, Liquid | 1302.35
303.36 K, 2170.3 kPa, Liquid | 1302.96
303.36 K, 2204.1 kPa, Liquid | 1303.24
303.36 K, 2239.2 kPa, Liquid | 1303.63
303.36 K, 2326 kPa, Liquid | 1304.46
303.36 K, 2359.9 kPa, Liquid | 1304.86
303.36 K, 2392.6 kPa, Liquid | 1305.27
303.36 K, 2427 kPa, Liquid | 1305.54
303.36 K, 2445.1 kPa, Liquid | 1305.96
303.36 K, 2496.7 kPa, Liquid | 1306.19
303.36 K, 2513.8 kPa, Liquid | 1306.54
303.36 K, 2546.9 kPa, Liquid | 1306.82
303.36 K, 2585.2 kPa, Liquid | 1307.14
303.36 K, 2621.3 kPa, Liquid | 1307.6
303.36 K, 2688.6 kPa, Liquid | 1308.11
303.36 K, 2773.2 kPa, Liquid | 1309.07
303.36 K, 2808 kPa, Liquid | 1309.41
303.36 K, 2842.3 kPa, Liquid | 1309.71
303.36 K, 2874.3 kPa, Liquid | 1310.03
303.36 K, 2907.2 kPa, Liquid | 1310.3
303.36 K, 2940.3 kPa, Liquid | 1310.77
303.36 K, 3022.9 kPa, Liquid | 1311.53
303.36 K, 3048.7 kPa, Liquid | 1311.84
303.36 K, 3100.9 kPa, Liquid | 1312.32
303.36 K, 3125.6 kPa, Liquid | 1312.63
303.36 K, 3150.3 kPa, Liquid | 1312.98
303.36 K, 3176.4 kPa, Liquid | 1313.02
303.36 K, 3201.4 kPa, Liquid | 1313.32
303.36 K, 3226.8 kPa, Liquid | 1313.58
303.36 K, 3276.7 kPa, Liquid | 1313.98
303.36 K, 3325.1 kPa, Liquid | 1314.49
303.36 K, 3349.9 kPa, Liquid | 1314.75
303.36 K, 3375.9 kPa, Liquid | 1314.91
303.36 K, 3401.4 kPa, Liquid | 1315.17
303.36 K, 3428.7 kPa, Liquid | 1315.55
303.36 K, 3457.9 kPa, Liquid | 1315.79
303.36 K, 3482.4 kPa, Liquid | 1315.97
303.36 K, 3532.9 kPa, Liquid | 1316.48
303.36 K, 3636.8 kPa, Liquid | 1317.48
303.36 K, 3692 kPa, Liquid | 1318.07
303.36 K, 3744.5 kPa, Liquid | 1318.56
303.36 K, 3799.6 kPa, Liquid | 1319.05
303.36 K, 3852.6 kPa, Liquid | 1319.41
303.36 K, 3906.9 kPa, Liquid | 1319.99
303.36 K, 3959.3 kPa, Liquid | 1320.51
303.36 K, 4068.1 kPa, Liquid | 1321.53
303.36 K, 4117.4 kPa, Liquid | 1322.06
303.36 K, 4226.8 kPa, Liquid | 1323.01
303.36 K, 4279 kPa, Liquid | 1323.53
303.36 K, 4384.9 kPa, Liquid | 1324.43
303.36 K, 4442 kPa, Liquid | 1324.86
303.36 K, 4491.1 kPa, Liquid | 1325.26
303.36 K, 4545.1 kPa, Liquid | 1325.86
303.36 K, 4652.9 kPa, Liquid | 1326.85
303.36 K, 4706.2 kPa, Liquid | 1327.25
303.36 K, 4761.9 kPa, Liquid | 1327.67
303.36 K, 4810.6 kPa, Liquid | 1328.19
303.36 K, 4861.8 kPa, Liquid | 1328.62
303.36 K, 4913.7 kPa, Liquid | 1329.12
303.36 K, 4970 kPa, Liquid | 1329.46
303.36 K, 5017 kPa, Liquid | 1329.84
303.36 K, 5088.1 kPa, Liquid | 1330.55
303.36 K, 5216.5 kPa, Liquid | 1331.6
303.36 K, 5343.2 kPa, Liquid | 1332.68
303.36 K, 5408.2 kPa, Liquid | 1333.2
303.36 K, 5478.7 kPa, Liquid | 1333.8
303.36 K, 5540.7 kPa, Liquid | 1334.24
303.36 K, 5605.9 kPa, Liquid | 1334.94
303.36 K, 5666.1 kPa, Liquid | 1335.34
303.36 K, 5731.3 kPa, Liquid | 1335.77
303.36 K, 5921.6 kPa, Liquid | 1337.37
303.36 K, 5981.8 kPa, Liquid | 1337.85
303.36 K, 6042.7 kPa, Liquid | 1338.34
303.36 K, 6104.9 kPa, Liquid | 1338.9
303.36 K, 6169.9 kPa, Liquid | 1339.47
303.36 K, 6232.2 kPa, Liquid | 1339.84
303.36 K, 6297.1 kPa, Liquid | 1340.49
303.36 K, 6362 kPa, Liquid | 1340.92
303.36 K, 6487 kPa, Liquid | 1341.93
303.36 K, 6549.6 kPa, Liquid | 1342.5
303.36 K, 6613.9 kPa, Liquid | 1342.92
303.36 K, 6678.1 kPa, Liquid | 1343.42
303.36 K, 6742 kPa, Liquid | 1343.99
303.36 K, 6802.7 kPa, Liquid | 1344.44
303.36 K, 6864.7 kPa, Liquid | 1344.88
303.36 K, 6928 kPa, Liquid | 1345.36
303.36 K, 7053.8 kPa, Liquid | 1346.25
303.36 K, 7120.4 kPa, Liquid | 1346.76
303.36 K, 7184.3 kPa, Liquid | 1347.25
303.36 K, 7245.2 kPa, Liquid | 1347.73
303.36 K, 7308.5 kPa, Liquid | 1348.26
303.36 K, 7370.8 kPa, Liquid | 1348.64
303.36 K, 7436.1 kPa, Liquid | 1349.17
303.36 K, 7499.7 kPa, Liquid | 1349.66
303.36 K, 7563.6 kPa, Liquid | 1350.15
303.36 K, 7689.6 kPa, Liquid | 1351.05
303.36 K, 7751.3 kPa, Liquid | 1351.45
303.36 K, 7812.7 kPa, Liquid | 1351.9
303.36 K, 7879.7 kPa, Liquid | 1352.39
303.36 K, 7943 kPa, Liquid | 1352.95
303.36 K, 8005.8 kPa, Liquid | 1353.4
303.36 K, 8100.6 kPa, Liquid | 1353.99
303.36 K, 8290.6 kPa, Liquid | 1355.42
303.36 K, 8481.2 kPa, Liquid | 1356.76
303.36 K, 8578.2 kPa, Liquid | 1357.54
303.36 K, 8675.5 kPa, Liquid | 1358.15
303.36 K, 8768.5 kPa, Liquid | 1358.79
303.36 K, 8868.4 kPa, Liquid | 1359.47
303.36 K, 8967.8 kPa, Liquid | 1360.24
303.36 K, 9068.6 kPa, Liquid | 1360.85
303.36 K, 9168.1 kPa, Liquid | 1361.57
303.36 K, 9265.9 kPa, Liquid | 1362.22
303.36 K, 9367 kPa, Liquid | 1362.91
303.36 K, 9568.1 kPa, Liquid | 1364.22
303.36 K, 9667.3 kPa, Liquid | 1364.9
303.36 K, 9768.6 kPa, Liquid | 1365.55
303.36 K, 9865.8 kPa, Liquid | 1366.04
303.36 K, 9961.4 kPa, Liquid | 1366.81
303.36 K, 9992.6 kPa, Liquid | 1366.98
323.21 K, 7 kPa, Fluid (supercritical or subcritical phases) | 0.29
323.21 K, 10.8 kPa, Fluid (supercritical or subcritical phases) | 0.58
323.21 K, 14.3 kPa, Fluid (supercritical or subcritical phases) | 0.86

Liquid
Settings | vapor or sublimation pressure [kPa]
308.21 K | 963.4
313.21 K | 1099.9
318.22 K | 1250.6
323.2 K | 1413.5
